Results as given in ChEMBL document CHEMBL5131485, “Synthesis and biological activity evaluation of novel 2,6,9-trisubstituted purine conjugates as potential protein kinases inhibitors” (Bioorg Med Chem Lett, 2022).
Active and inactive are the calls of the source. No cut-off for these calls is given here.

Experiments:
[1] = target: Receptor-type tyrosine-protein kinase FLT3 (Homo sapiens, UniProt P36888, ITD)
Description: Inhibition of FLT3 ITD mutant (unknown origin)

[2] = target: Platelet-derived growth factor receptor alpha (Homo sapiens, UniProt P16234)
Description: Inhibition of PDGFRalpha (unknown origin)

[3] = target: Cyclin-dependent kinase 2 (Homo sapiens, UniProt P24941)
Description: Inhibition of CDK2 (unknown origin)

[4] = system: Receptor-type tyrosine-protein kinase FLT3 (Homo sapiens), P36888 [UNDEFINED MUTATION]; details: MV4-11, dose 5-25 nM, time 1.0 hrs
MV4-11 [5] = assay: cells; details: Homo sapiens
Description: Antiproliferative activity against human MV4-11 cells expressing FLT3-ITD mutant

EOL1 = assay: cells; details: Homo sapiens
Description: Antiproliferative activity against human EOL1 cells expressing IP1L1-PDGFRA fusion protein

Kasumi 1 = assay: cells; details: Homo sapiens
Description: Antiproliferative activity against human Kasumi 1 cells harboring N822K KIT mutant

K562 = assay: cells; details: Homo sapiens
Description: Antiproliferative activity against human K562 cells

MV4-11 [6] = format: functional, cell-based; details: Homo sapiens, dose 1-125 nM, time 24.0 hrs
[7] = system: Receptor-type tyrosine-protein kinase FLT3 (Homo sapiens), P36888 [UNDEFINED MUTATION]; details: MV4-11, dose 5-25 nM, time 1.0 hrs; remark: listed apart in the source
[8] = system: Receptor-type tyrosine-protein kinase FLT3 (Homo sapiens), P36888 [UNDEFINED MUTATION]; details: MV4-11, dose 5-25 nM, time 1.0 hrs; remark: listed apart in the source

Sequence of Platelet-derived growth factor receptor alpha (P16234 whole entry): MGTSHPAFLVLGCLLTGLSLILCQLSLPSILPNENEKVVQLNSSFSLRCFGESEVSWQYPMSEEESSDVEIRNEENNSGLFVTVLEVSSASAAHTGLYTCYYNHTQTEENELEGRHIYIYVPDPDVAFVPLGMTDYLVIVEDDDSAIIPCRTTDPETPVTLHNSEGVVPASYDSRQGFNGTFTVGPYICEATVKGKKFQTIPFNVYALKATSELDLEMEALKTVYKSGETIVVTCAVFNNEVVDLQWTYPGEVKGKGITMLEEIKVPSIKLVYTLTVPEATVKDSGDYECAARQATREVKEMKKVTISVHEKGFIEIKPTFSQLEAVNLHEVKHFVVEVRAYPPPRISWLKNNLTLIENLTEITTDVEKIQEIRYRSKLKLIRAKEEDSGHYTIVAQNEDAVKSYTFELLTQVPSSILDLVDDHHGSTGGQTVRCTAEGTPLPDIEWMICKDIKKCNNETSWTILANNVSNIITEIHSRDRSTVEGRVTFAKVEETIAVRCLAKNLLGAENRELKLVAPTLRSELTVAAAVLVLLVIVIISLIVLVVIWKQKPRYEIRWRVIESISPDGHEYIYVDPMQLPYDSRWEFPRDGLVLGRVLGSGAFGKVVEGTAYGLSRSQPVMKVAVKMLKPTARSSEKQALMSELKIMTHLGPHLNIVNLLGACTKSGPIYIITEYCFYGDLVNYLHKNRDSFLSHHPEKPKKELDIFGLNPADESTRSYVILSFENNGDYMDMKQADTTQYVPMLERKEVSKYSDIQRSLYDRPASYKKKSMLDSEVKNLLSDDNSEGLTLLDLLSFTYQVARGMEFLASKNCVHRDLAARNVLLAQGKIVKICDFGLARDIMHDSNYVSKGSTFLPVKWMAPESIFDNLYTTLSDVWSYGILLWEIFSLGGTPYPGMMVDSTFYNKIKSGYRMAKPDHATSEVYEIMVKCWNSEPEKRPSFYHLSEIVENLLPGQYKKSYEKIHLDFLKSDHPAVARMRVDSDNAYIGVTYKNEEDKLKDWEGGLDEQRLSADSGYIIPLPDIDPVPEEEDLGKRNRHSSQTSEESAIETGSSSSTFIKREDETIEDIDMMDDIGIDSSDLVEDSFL
Sequence of Receptor-type tyrosine-protein kinase FLT3 (Homo sapiens), P36888 [UNDEFINED MUTATION] (P36888 whole entry, looked up, change not shown): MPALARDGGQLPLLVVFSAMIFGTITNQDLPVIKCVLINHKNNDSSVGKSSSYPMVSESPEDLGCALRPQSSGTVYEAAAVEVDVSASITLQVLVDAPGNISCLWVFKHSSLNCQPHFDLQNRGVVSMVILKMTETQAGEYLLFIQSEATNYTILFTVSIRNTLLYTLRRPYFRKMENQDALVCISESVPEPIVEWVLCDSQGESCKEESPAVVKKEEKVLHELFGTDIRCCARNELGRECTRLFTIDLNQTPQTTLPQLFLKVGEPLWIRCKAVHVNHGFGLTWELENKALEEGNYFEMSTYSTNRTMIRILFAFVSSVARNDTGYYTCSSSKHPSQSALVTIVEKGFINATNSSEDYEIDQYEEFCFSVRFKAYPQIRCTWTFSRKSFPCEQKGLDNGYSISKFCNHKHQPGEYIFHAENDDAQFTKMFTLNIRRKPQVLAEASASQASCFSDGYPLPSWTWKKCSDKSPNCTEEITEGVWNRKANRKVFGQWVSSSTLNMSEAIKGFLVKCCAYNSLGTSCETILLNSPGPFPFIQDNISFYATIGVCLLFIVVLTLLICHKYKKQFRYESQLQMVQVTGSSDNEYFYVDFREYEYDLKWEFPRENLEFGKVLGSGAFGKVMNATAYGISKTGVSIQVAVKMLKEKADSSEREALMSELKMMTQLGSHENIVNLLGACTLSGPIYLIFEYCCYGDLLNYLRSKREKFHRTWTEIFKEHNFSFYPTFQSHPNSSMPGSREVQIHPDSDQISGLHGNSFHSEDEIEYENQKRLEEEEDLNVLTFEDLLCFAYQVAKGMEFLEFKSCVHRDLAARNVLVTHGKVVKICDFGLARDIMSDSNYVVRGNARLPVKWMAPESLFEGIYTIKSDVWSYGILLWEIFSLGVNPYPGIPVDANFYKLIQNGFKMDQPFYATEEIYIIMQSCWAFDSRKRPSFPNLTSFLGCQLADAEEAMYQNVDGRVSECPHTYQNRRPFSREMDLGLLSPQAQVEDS
Sequence of Receptor-type tyrosine-protein kinase FLT3 (P36888 whole entry, looked up, change not shown): as above

Row | Compound | IC50 [1] [nM] | IC50 [2] [nM] | IC50 [3] [nM] | inhibition [4] | GI50 (MV4-11 [5]) [nM] | GI50 (EOL1) [nM] | GI50 (Kasumi 1) [nM] | GI50 (K562) [nM] | Activity (MV4-11 [6]) | inhibition [7] | inhibition [8]
1 | NCCCCNC(=O)c1ccc(CNc2nc(N[C@H]3CC[C@H](N)CC3)nc3c2ncn3C2CCCC2)cc1 | 1650 | > 20000 | 27 | Active | 577 | 676 | 2560 | 8260 | – | – | –
2 | NCCCNCCCCNc1ccc(Nc2nc(N[C@H]3CC[C@H](N)CC3)nc3c2ncn3C2CCCC2)cc1 | 6 | 219 | 21 | Active | 52 | 60 | 1850 | 2780 | Active | Active | Active
3 | NCCCNCCCCNCCCNc1ccc(Nc2nc(N[C@H]3CC[C@H](N)CC3)nc3c2ncn3C2CCCC2)cc1 | 10 | 203 | 31 | Active | 4 | 11 | 647 | 896 | – | Active | Active
4 | NCCCCNc1ccc(Nc2nc(N[C@H]3CC[C@H](N)CC3)nc3c2ncn3C2CCCC2)cc1 | 4 | 153 | 17 | Active | 95 | 171 | 2740 | 6300 | Active | Active | Active
5 | NCCCNCCCCNC(=O)c1ccc(CNc2nc(N[C@H]3CC[C@H](N)CC3)nc3c2ncn3C2CCCC2)cc1 | 1310 | 19800 | 25 | Active | 602 | 799 | 1920 | 7190 | – | – | –
6 | NCCCCNC(=O)c1ccc(Nc2nc(N[C@H]3CC[C@H](N)CC3)nc3c2ncn3C2CCCC2)cc1 | 3 | 36 | 20 | Active | 23 | 15 | 4050 | 10800 | Active | Active | Active
7 | NCCCNCCCCNC(=O)c1ccc(Nc2nc(N[C@H]3CC[C@H](N)CC3)nc3c2ncn3C2CCCC2)cc1 | 4 | 41 | 19 | Active | 25 | 17 | 2910 | 7370 | Active | Active | Active
8 | N[C@H]1CC[C@H](Nc2nc(Nc3ccccc3)c3ncn(C4CCCC4)c3n2)CC1 | 5 | 196 | 7 | Active | 23 | 41 | 278 | 2450 | Active | Active | Active
9 | N[C@H]1CC[C@H](Nc2nc(NCc3ccccc3)c3ncn(C4CCCC4)c3n2)CC1 | 2510 | > 20000 | – | Active | 1140 | 1170 | 988 | 4220 | – | – | –
10 | NC(=O)c1ccc(Nc2nc(N[C@H]3CC[C@H](N)CC3)nc3c2ncn3C2CCCC2)cc1 | 2 | 17 | 4 | Active | 39 | 40 | 4180 | 6130 | Active | Active | Active
